Measurements reported in patent US10131649B2, “Bicyclic compounds as pest control agents” (BAYER CROPSCIENCE AKTIENGESELLSCHAFT, priority 2014, dated 2018).
Like-named read-outs stand apart in the source and are kept apart here.

How the values were obtained:
[1] = system: green peach aphid (Myzus persicae); experiment: Myzus persicae spray test (Chinese cabbage leaf discs); format: in vivo; conditions: foliar, 144 h, read-out: efficacy in %
Procedure: Myzus persicae—Spray Test
Solvent: • 78 parts by weight of acetone • 1.5 parts by weight of dimethylformamide
Emulsifier: alkylaryl polyglycol ether
To produce a suitable preparation of active compound, 1 part by weight of active compound is dissolved using the specified parts by weight of solvent and made up with water containing an emulsifier concentration of 1000 ppm until the desired concentration is attained. To produce further test concentrations, the formulation is diluted with emulsifier-containing water.
Discs of Chinese cabbage leaves (Brassica pekinensis) infested by all stages of the green peach aphid (Myzus persicae) are sprayed with an active compound formulation of the desired concentration.
After 6 days, the efficacy in % is determined. 100% means that all the aphids have been killed; 0% means that no aphids have been killed.

[2] = log P by HPLC on reversed-phase columns (OECD Guideline 117), [a] acidic pH 2.7, [b] neutral pH 7.8; format: physicochemical; conditions: reversed-phase (C18) HPLC column
Procedure: The log P values were determined in accordance with OECD Guideline 117 (EC Directive 92/69/EEC) by HPLC (high-performance liquid chromatography) using reversed-phase (RP) columns (C18), by the following methods:
[a] The LC-MS determination in the acidic range is carried out at pH 2.7 with 0.1% aqueous formic acid and acetonitrile (contains 0.1% formic acid) as eluents; linear gradient from 10% acetonitrile to 95% acetonitrile.
[b] LC-MS determination in the neutral range is effected at pH 7.8 with 0.001 molar aqueous ammonium hydrogencarbonate solution and acetonitrile as eluents; linear gradient from 10% acetonitrile to 95% acetonitrile.
Calibration is carried out using unbranched alkan-2-ones (having 3 to 16 carbon atoms) with known log P values (log P values determined on the basis of the retention times by linear interpolation between two successive alkanones).

[3] = acidic pH 2.7, read-out: logP[a]
[4] = neutral pH 7.8, read-out: logP[b]

For CN(C)C(=O)c1ccc2nn(-c3cccnc3)cc2c1 [Example 1], the pest or weed control at 500 g/ha [1] was 100%.

O=C(NCC(F)(F)F)c1ccc2nn(-c3cccnc3)cc2c1 [Example 3] gave a pest or weed control at 500 g/ha [1] of 100%.

With CN(C)C(=O)c1ccc2nn(-c3cncc(F)c3)cc2c1 [Example 18] the pest or weed control at 500 g/ha [1] was 90%.

In the case of O=C(NCC(F)(F)F)c1ccc2nn(-c3cncc(F)c3)cc2c1 [Example 19], the pest or weed control at 500 g/ha [1] is reported as 90%.

Molecule O=C(NCC(F)(F)F)c1ccc2nn(-c3cncnc3)cc2c1 [Example 26] has a pest or weed control at 100 g/ha [1] of 90%.

CN(C)C(=O)c1ccc2nn(-c3cncnc3)cc2c1 [Example 27] gave a pest or weed control at 500 g/ha [1] of 90%.

CCNC(=O)c1ccc2nn(-c3cncnc3)cc2c1 [Example 29] gave a pest or weed control at 100 g/ha [1] of 90%.

For O=C(NCC(F)F)c1ccc2nn(-c3cncnc3)cc2c1 [Example 30], the pest or weed control at 500 g/ha [1] was 100%.

CNC(=O)c1ccc2nn(-c3cncnc3)cc2c1 [Example 31] showed a pest or weed control at 500 g/ha [1] of 90%.

Work on CON(C)C(=O)c1ccc2nn(-c3cncnc3)cc2c1 [Example 32] yielded a pest or weed control at 500 g/ha [1] of 100%.

Molecule CC(F)(F)CNC(=O)c1ccc2nn(-c3cncnc3)cc2c1 [Example 33] has a pest or weed control at 500 g/ha [1] of 100%.

In the case of Cn1cc(-n2cc3cc(C(=O)NCC(F)(F)F)ccc3n2)cn1 [Example 37], the pest or weed control at 500 g/ha [1] is reported as 90%.

Molecule O=C(c1ccc2nn(-c3cccnc3)cc2c1)N1CCS(=O)(=O)CC1 [Example 93] has a chromatographic logP [2, 3] of 0.87 and a chromatographic logP [2, 4] of 1.03.

Work on c1cncc(-n2cc3cc(-c4cn[nH]c4)ccc3n2)c1 [Example 98, 5-(1H-Pyrazol-4-yl)-2-(pyridin-3-yl)-2H-indazole] yielded a chromatographic logP [2, 3] of 1.27 and a chromatographic logP [2, 4] of 1.3.

CSCC(C)C(=O)N(C)c1ccc2nn(-c3cnn(C)c3)cc2c1 (stereo not drawn) [Example 105, N,2-Dimethyl-N-(2-(1-methyl-1H-pyrazol-4-yl)-2H-indazol-5-yl)-3-(methylthio) propanamide] gave a pest or weed control at 500 g/ha ([1]; application rate 500 g/ha, after 6 days, Chinese cabbage leaf discs, 100% = all aphids killed) of 90%.

In the case of CSCCC(=O)N(C)c1ccc2nn(-c3cncc(F)c3)cc2c1 [Example 108], the pest or weed control at 500 g/ha [1] is reported as 100%.

Work on CSCC(C)C(=O)N(C)c1ccc2nn(-c3cncc(F)c3)cc2c1 (stereo not drawn) [Example 109] yielded a pest or weed control at 500 g/ha [1] of 100%.

In the case of CSCC(C)C(=O)N(C)c1ccc2nn(-c3cccnc3)cc2c1 (stereo not drawn) [Example 110], the pest or weed control at 500 g/ha [1] is reported as 90%.

Molecule CSCCC(=O)N(C)c1ccc2nn(-c3cccnc3)cc2c1 [Example 111] has a pest or weed control at 500 g/ha [1] of 90%.

In the case of CN(C(=O)CC(C)(F)F)c1ccc2nn(-c3cccnc3)cc2c1 [Example 112], the pest or weed control at 500 g/ha [1] is reported as 100%.

Molecule CN(C(=O)CC(C)(F)F)c1ccc2nn(-c3cncc(F)c3)cc2c1 [Example 113] has a pest or weed control at 500 g/ha [1] of 90%.

Molecule Cc1ccc(C(=O)N(C)c2ccc3nn(-c4cncc(F)c4)cc3c2)cc1[S+]([O-])CC(F)(F)F (stereo not drawn) [Example 114] has a pest or weed control at 500 g/ha [1] of 90%.

With Cc1ccc(C(=O)N(C)c2ccc3nn(-c4cccnc4)cc3c2)cc1[S+]([O-])CC(F)(F)F (stereo not drawn) [Example 115] the pest or weed control at 500 g/ha [1] was 100%.

For Cc1ccc(C(=O)N(C)c2ccc3nn(-c4cnn(C)c4)cc3c2)cc1[S+]([O-])CC(F)(F)F (stereo not drawn) [Example 116], the pest or weed control at 500 g/ha [1] was 90%.

Work on Cc1cc(F)c(C(=O)N(C)c2ccc3nn(-c4cncc(F)c4)cc3c2)cc1[S+]([O-])CC(F)(F)F (stereo not drawn) [Example 118] yielded a pest or weed control at 500 g/ha [1] of 90%.

CN(C(=O)CC[S+](C)[O-])c1ccc2nn(-c3cncc(F)c3)cc2c1 (stereo not drawn) [Example 121] gave a pest or weed control at 500 g/ha [1] of 100%.

CC(C[S+](C)[O-])C(=O)N(C)c1ccc2nn(-c3cncc(F)c3)cc2c1 (stereo not drawn) [Example 122] showed a pest or weed control at 500 g/ha [1] of 100%.

Molecule CN(C(=O)CC[S+](C)[O-])c1ccc2nn(-c3cccnc3)cc2c1 (stereo not drawn) [Example 123] has a pest or weed control at 500 g/ha [1] of 90%.

CN(C(=O)CCS(C)(=O)=O)c1ccc2nn(-c3cncc(F)c3)cc2c1 [Example 128] gave a pest or weed control at 500 g/ha [1] of 100%.

With CN(C(=O)CCS(C)(=O)=O)c1ccc2nn(-c3cccnc3)cc2c1 [Example 129] the pest or weed control at 500 g/ha [1] was 90%.

Molecule CC(CS(C)(=O)=O)C(=O)N(C)c1ccc2nn(-c3cccnc3)cc2c1 (stereo not drawn) [Example 130] has a pest or weed control at 500 g/ha [1] of 90%.
